Reference: paper PMC5618429, “Kempopeptin C, a Novel Marine-Derived Serine Protease Inhibitor Targeting Invasive Breast Cancer” (Marine Drugs, 2017)

Assays:
[1] = target: T1, 20S proteasome (trypsin-like activity) (Homo sapiens, UniProt Q99436); experiment: Proteasome Glo Trypsin-Like Activity Assay; type: biochemical; settings: 10 and 1 µM, in vitro
T1 construct: purchased Enzo Life Sciences
Protocol: The inhibition of proteasomes was assessed using the Proteasome Glo Trypsin-Like Activity Assay from Promega according to the manufacturer’s instructions. Briefly, in white 96-well plates, kempopeptin C (3) (10 and 1 µM final concentration) was incubated at room temperature with 0.1 µg 20S proteasome (Enzo Life Sciences, Farmingdale, NY, USA) for 10 min to allow enzyme inhibitor interactions. Following the incubation period, the detection reagent containing Z-LRR-aminoluciferin substrate was added. The plate was gently mixed at 400 rpm for 30 s and then incubated at room temperature for 10 min. The luminescence signal was then measured using the EnVision plate reader (PerkinElmer, Waltham, MA, USA). Epoxomicin was used as a positive control.
Effect of kempopeptin C on the trypsin- like activity of
Kempopeptin C (10 µM) Kempopeptin C (1 µM) Epoxomicin (5 µM)
Figure S2. Effect of kempopeptin C (3) on the proteasome activity in vitro assessed using proteasome Glo trypsin- like
activity assay (Promega).

[2] = target: T2, trypsin from porcine pancreas (Sus scrofa, UniProt P00761); experiment: Trypsin inhibition assay; type: biochemical; settings: mean ± SD, n = 3; 30-min preincubation; read-out: IC50 against trypsin
T2 construct: purchased Sigma T0303; host or cells: porcine pancreas
T2 sequence (P00761 9-231): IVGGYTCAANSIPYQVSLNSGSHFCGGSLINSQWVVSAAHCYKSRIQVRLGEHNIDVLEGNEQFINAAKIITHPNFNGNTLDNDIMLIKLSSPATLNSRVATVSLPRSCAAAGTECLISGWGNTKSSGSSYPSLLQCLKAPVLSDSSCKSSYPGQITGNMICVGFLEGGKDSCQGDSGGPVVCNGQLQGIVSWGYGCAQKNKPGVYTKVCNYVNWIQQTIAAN
Protocol: The trypsin inhibition assay was carried out at room temperature by incubating 10 µL of trypsin from porcine pancreas (T0303, Sigma, St. Louis, MO, USA) (100 µM prepared in assay buffer) with 39 µL of assay buffer (50 mM Tris-HCl, 100 mM NaCl, 1 mM CaCl2; pH 7.8) in the presence of 1 µL of different concentrations of inhibitors (2 and 3; half log dilutions prepared in DMSO) or the solvent control. After a 30-min incubation time, 50 µL of the 1.5 mM substrate: Nα-benzoyl-DL-arginine-4-nitroanilide (prepared as 2 mM stock solution in DMF and further diluted to 1.5 mM in assay buffer) were added to each well. The reaction was monitored by measuring the absorbance at 405 nm every 30 s for 30 min using SpectraMax M5 plate reader (Molecular Devices, Sunnyvale, CA, USA).

[3] = system: CDCP1 cleavage in MDA-MB-231 cells; experiment: Cleavage of cellular CDCP1 in MDA-MB-231 supplemented with exogenous recombinant human matriptase; type: cell-based; settings: MDA-MB-231 + 10 nM recombinant human matriptase, 24 h, different concentrations
Protocol: Figure 6 The effect of kempopeptins B and C (2 and 3) on CDCP1 cleavage in MDA-MB-231. (A) MDA-MB-231 cells were treated for 72 h with different concentrations of the test compounds. Following 72 h, the lysates were collected and analyzed by Western blot. (B) MDA-MB-231 cells were treated at different time points with 100 µM of kempopeptin C (3). Following 6 h, 12 h and 24 h, the lysates were collected and analyzed by Western blot. Dexamethasone (Dex) was used as a positive control. (C) MDA-MB-231 cells treated for 24 h with different concentrations of 3 in the presence of 10 nM recombinant human matriptase. Cell lysates were harvested and analyzed by Western blot. (D) Densitometric analysis of the full-length, LMW of CDCP1 and actin bands in (C).
In this experiment, we aimed to investigate the ability of 3 to inhibit cell-expressed CDCP1 rather than the purified recombinant protein in vitro. In contrast to the well-controlled in vitro assay, several factors might influence the extracellular matriptase activity in the cell-based assay; for example, the occurrence of additional secreted cellular factors, differences in pH, in addition to the unknown enzyme:substrate:inhibitor ratio. […] Additionally, matriptase is one of at least two other proteases known to process CDCP1, where plasmin is the main protease cleaving CDCP1 in MDA-MB-231 cells. […]

`CCCC(=O)NC(C(=O)NC1C(=O)NC(CCCCN)C(=O)NC2CCC(O)N(C2=O)C(C(C)CC)C(=O)N(C)C(Cc2ccc(OC)c(Cl)c2)C(=O)NC(C(C)C)C(=O)OC1C)C(C)C` (stereo not shown) [Kempopeptin C, kempopeptin C] was tested, and the “Effect on trypsin-like activity of proteasomes” value [1] was “did not inhibit the trypsin-like activity of proteasomes”, the IC50 [2] was 190 ± 50 nM and the “Reduction of cleavage of cellular CDCP1 in presence of exogenous matriptase” value [3] was “reduced the cleavage of CDCP1”. The “Reduction of cleavage of cellular CDCP1 in presence of exogenous matriptase” value ([3]; listed as Kempopeptin C (3)) was “slight dose-dependent reduction in the cleavage of the full-length form”.
